Data: patent publication US5208344A, “Naphthalenepropionic acid derivatives as anti-inflammatory/antiallergic agents” (American Home Products Corporation, priority 1991, dated 1993)

Assays:
LTD4 = biological target: T1, LTD4 (Cavia porcellus, UniProt Q2NNR5); experiment: LTD4 antagonist activity in isolated guinea pig trachea; assay type: cell-based; conditions: 1 × 10^-5 M
T1 construct: isolated guinea pig trachea; from tissue; host or cells: guinea pig tracheal rings
T1 sequence (Q2NNR5 1-340): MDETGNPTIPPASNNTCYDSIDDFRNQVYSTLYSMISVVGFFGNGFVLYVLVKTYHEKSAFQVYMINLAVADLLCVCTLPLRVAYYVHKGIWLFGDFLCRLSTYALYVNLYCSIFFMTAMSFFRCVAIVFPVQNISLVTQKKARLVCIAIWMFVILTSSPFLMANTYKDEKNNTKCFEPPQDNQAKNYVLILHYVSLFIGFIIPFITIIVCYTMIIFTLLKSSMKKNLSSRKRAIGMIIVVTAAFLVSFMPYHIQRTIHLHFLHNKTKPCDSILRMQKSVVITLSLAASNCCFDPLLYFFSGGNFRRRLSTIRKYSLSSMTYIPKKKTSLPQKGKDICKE
Procedure: The LTD4 antagonist activity of the compounds of the invention is assessed in the in vitro isolated guinea pig trachea assay. Male Hartley guinea pigs (350-400 g) are euthanized by a blow to the head, the neck is opened and the trachea removed. The trachea is maintained in aerated physiological salt solution, cleared of connective tissue and fat and cut into rings approximately 2 mm in width (usually containing two cartilaginous segments per ring). Two pieces of silk suture are then passed through the lumen of the tracheal ring and are tied around the cartilage, one on each side of the trachealis muscle. The tracheal ring is suspended between a glass hook and a force displacement transducer in a 10 ml organ bath for measurement of isometric tension. Tissues are maintained at 37° C. in aerated ([…] /5% CO2) physiological salt solution of the following composition: […] The tracheal rings are maintained at 2 g resting tension and equilibrated for 45 minutes (with frequence washing and readjustment of resting tension). The tracheal rings are first contracted by the addition of carbachol (3×10^-6 M), to determine tissue responsiveness and establish a reference contraction. On attainment of a stable level of contraction (approximately 30 minutes), the tissues are washed several times until baseline tension has been restored and the re-equilibrated for 30 minutes. The tissues are then incubated for 45 minutes with a test antagonist (either 1×10^-6 M or 1×10^-5 M) or 10 μl of an appropriate solvent control (control, non-treated). One tissue in each group serves as the control. Twenty minutes prior to the construction of the LTD4 cumulative concentration-response curve, L-[…]×10^-2 M final bath concentration) is added to inhibit bioconversion of LTD4 to LTE4. Only one LTD4 concentration-response curve is constructed in each tissue. All responses to LTD4 in an individual tissue are measured as a percentage of the reference contraction of that tissue to carbachol. LTD4 antagonist activity is determined by comparison of the concentration response curves of LTD4 in the presence and absence of antagonist. Assessment of the relative rightward shift of the antagonist treated curve relative to the solvent (control) treated tissue is calculated as a concentration ratio (Eq. A) and used in subsequent calculations to derive an antagonist pKB value (Eqs. B and C). In the vent that the maximum response to LTD4 is depressed, the EC50 for that particular curve is determined, an "apparent" pKB reported, and the compound reported as "not-competitive." [formula] If a compound is found to be active and/or depress the maximal response to LTD4, then a range of concentrations of the test compound should be used generating multiple concentration ratios which would than be used to perform a Schild analysis, and determination of a pA2 value where appropriate.

5-lipoxygenase = biological target: T2, 5-lipoxygenase (Homo sapiens, UniProt P09917); experiment: inhibition of 5-lipoxygenase in human whole blood (LTB4); assay type: cell-based; conditions: human whole blood
T2 construct: Blood is obtained in 50-100 ml quantities from male donors; endogenous in cells; host or cells: human whole blood (leukocytes) from male donors
T2 sequence (P09917 1-674): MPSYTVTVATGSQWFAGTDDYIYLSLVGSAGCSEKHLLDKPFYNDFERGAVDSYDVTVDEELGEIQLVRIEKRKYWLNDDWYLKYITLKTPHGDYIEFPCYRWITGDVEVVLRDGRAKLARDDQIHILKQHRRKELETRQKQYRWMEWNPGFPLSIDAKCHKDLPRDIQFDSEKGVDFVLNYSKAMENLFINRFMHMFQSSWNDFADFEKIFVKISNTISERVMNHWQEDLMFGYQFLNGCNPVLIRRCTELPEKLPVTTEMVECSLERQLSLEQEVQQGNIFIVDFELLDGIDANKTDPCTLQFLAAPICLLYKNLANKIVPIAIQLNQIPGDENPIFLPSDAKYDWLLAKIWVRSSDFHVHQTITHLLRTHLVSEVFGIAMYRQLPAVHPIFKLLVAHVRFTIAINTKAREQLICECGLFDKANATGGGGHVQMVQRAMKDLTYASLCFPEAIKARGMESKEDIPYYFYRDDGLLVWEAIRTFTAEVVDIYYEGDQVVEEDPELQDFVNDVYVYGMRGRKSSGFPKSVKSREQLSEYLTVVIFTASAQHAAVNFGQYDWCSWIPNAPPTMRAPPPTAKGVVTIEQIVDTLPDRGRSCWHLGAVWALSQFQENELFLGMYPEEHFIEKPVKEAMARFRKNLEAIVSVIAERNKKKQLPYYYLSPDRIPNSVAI
Procedure: The assay of this Example measures the ability of the compounds tested to inhibit 5-lipxygenase in human whole blood.
Blood is obtained in 50-100 ml quantities from male donors. White blood cell counts and differentials are made. Two ml of blood are placed in a 15 ml polypropylene test tube. Compounds are solubilized in dimethylsulfoxide and diluted 1:10 in 10% bovine serum albumin in phosphate buffered saline, pH 7.4 resulting in a final dimethylsulfoxide concentration of 0.1% in the blood. Then, compounds are added to the blood in a shaking water bath at 37° C. for 10 minutes prior to the addition of 30 μM calcium ionophore (A23187; Sigma). After ionophore administration, whole blood samples are mixed and incubated for 20 minutes at 37° C. in a shaking water bath. Incubation is terminated by placing samples in an ice bath and immediately adding ethylene glycol-bis-(β-aminoethyl ether)-N,N,N',N'-tetraacetic acid (10 mM). Samples are mixed and centrifuged at 1200×g for 15 minutes at 4° C. Preparation of samples for evaluation by RIA or ELISA is carried out by the following protocol. Plasma is removed from sample tubes, placed in 15 ml polypropylene test tubes containing 8 ml methanol, and then vortexed to precipitate protein. Samples are stored at -70° C. overnight. The next day, samples are centrifuged at 200×g for 15 minutes at 4° C. to pellet the precipitate. Samples are dried in a Savant speed vac concentrator, reconstituted to original volume with ice cold RIA or ELISA buffer, and stored at -70° C. until assayed. The assay for eicosanoids (LTB4, TxB2, and PGE2) is performed as described by the manufacturer of the [^3 H]-RIA kit or ELISA kit (LTB4 -Amersham, TxB2 and PGE2 - Caymen Chemical).
The total eicosanoid level in 2 ml of blood is calculated and reported as ng/10^6 neutrophils. Significance is determined by a one-way analysis of variance with least significant difference (LSD) comparisons to control (p≤0.05) and IC50 's (μM) are determined by regression analysis (Finney, 1978). Drug effects are expressed as percent change form control values.
Compounds tested in vitro are solubilized in dimethylsulfoxide and diluted 1:10 in 10% bovine serum albumin in phosphate buffer saline resulting in a final dimethylsulfoxide concentration of 0.1% in the blood.

carrageenan paw edema = experiment: rat carrageenan paw edema assay; assay type: in vivo; conditions: Rattus norvegicus, po, 3 h, read-out: Oral ED50 (95% C.L.)
Procedure: The compounds of the invention are further tested in the rat carrageenan paw edema assay to determine their ability to inhibit the acute inflammatory response.
140-180 gm male Sprague-Dawley rats, in groups of 6 animals are injected subcutaneously in the right paw with 0.1 ml of 1% carrageenan at zero time. Mercury plethysmographic readings (ml) of the paw are made at zero time and 3 hours later. Test compounds are suspended or dissolved in 0.5% methylcellulose and given perorally 1 hour prior to carrageenan administration.
The increase in paw volume (edema in ml.) produced by the carrageenan is measured. […] Unpaired Student's t-test is used to determine statistical significance.

Structure (SMILES)	Kb (LTD4) [µM]	inhibition at 25 µM (5-lipoxygenase) [%]	IC50 (5-lipoxygenase) [µM]	ED50 (carrageenan paw edema) [mg/kg]
CC(NC(=O)NO)c1ccc2cc(OCc3csc(-c4ccccc4)n3)ccc2c1 (single isomer, unassigned; (-)) [Example 36, (-)-N-Hydroxy-N'-[1-[6-(2-phenyl-4-thiazolyl)methoxy-2-naphthalenyl]ethyl]urea]	> 10	86	13.5	
C[C@H](C(=O)N(C)O)c1ccc2cc(OCc3ccccn3)ccc2c1 [Example 44, S-(+)-N-Hydroxy-α, N-diomethyl-6-(2-pyridinylmethoxy)-2-naphthaleneacetamide]	1.58	86	2	
C[C@H](C(=O)N(C)O)c1ccc2cc(OCc3nc4ccccc4n3C)ccc2c1 [Example 45, S-(+)-N-Hydroxy-α,N-dimethyl-6-[(1-methyl-1H-benzimidazol-2-yl)methoxy]-2-naphthaleneacetamide]	0.2	75	1.1	
C[C@H](C(=O)N(C)O)c1ccc2cc(OCc3nc4ccccc4s3)ccc2c1 [Example 41, S-(+)-N-Hydroxy-α,N-dimethyl-6-(2-benzothiazolylmethoxy)-2-naphthaleneacetamideone tenth hydrate]	0.398	83	11.4	
C[C@H](C(=O)N(C)O)c1ccc2cc(OCc3nc4ccccc4o3)ccc2c1 [Example 47, S-N-Hydroxy-α, N-dimethyl-6-(2-benzoxazolylmethoxy)-2-naphthaleneacetamide]	0.501	84	2.3	
C[C@H](NC(=O)NO)c1ccc2cc(OCc3nc4ccccc4s3)ccc2c1 [Example 38, S-(-)-N-[1-[6-(2-Benzothiazolylmethoxy)-2-naphthalenyl]ethyl]-N'-hydroxyurea]	> 6.31	52	34.4	
C[C@H](C(=O)N(C)O)c1ccc2cc(OCc3csc(-c4ccccc4)n3)ccc2c1 [Example 39, S(+)-N-Hydroxy-α,N-dimethyl-[6-(2-phenyl-4-thiazolyl)methoxy]-2-naphthaleneacetamide]	10	91	6.9	
CC(=O)Oc1ccccc1C(=O)O [Aspirin, reference compound]				145
